Reference: patent US8404736B2, “Heterocyclic amide derivatives as EP4 receptor antagonists” (Beta Pharma Canada Inc., priority 2008, dated 2013)

Molecular target: T1, EP4 receptor (Homo sapiens, UniProt P35408)
T1 construct: host or cells: HEK 293(ebna) according to the general protocol; cells used by the contract laboratory not given
Assay: EP4 receptor binding assay (inhibition of [3H]PGE2 binding, MSD Pharma Service)
Details: 1 nM [3H] PGE2, Human recombinant Chem-1 cells; for inhibition at 0.01 µM: Tested Concentration 10 nM; for inhibition at 0.002 µM: Tested Concentration 2 nM
Description: Transfected HEK 293(ebna) cells are maintained in culture, harvested and membranes are prepared by differential centrifugation, following lysis of the cells in the presence of protease inhibitors, for use in receptor binding assays. Prostanoid receptor binding assays (for DP1, DP2 (CRTH2), EP1, EP2, EP3-III, EP4, FP, IP, and TP) are performed in 10 mM MES/KOH (pH 6.0) (EPs, FP and TP) or 10 mM HEPES/KOH (pH 7.4) (DPs and IP), containing 1 mM EDTA, 2.5-30 mM divalent cation and the appropriate radioligand. Synthetic compounds are added in dimethylsulfoxide which is kept constant at 1% (v/v) in all incubations. The reaction is initiated by addition of membrane protein. Non-specific binding is determined in the presence of 10 μM of the corresponding non-radioactive prostanoid. Incubations are conducted for 60-90 min at room temperature or 30° C. and terminated by rapid filtration. Specific binding is calculated by subtracting non specific binding from total binding. The residual specific binding at each ligand concentration is calculated and expressed as a function of ligand concentration in order to construct sigmoidal concentration-response curves. The binding affinity of the compounds is determined by calculating the equilibrium inhibition constant (Ki) from the equation Ki=InPt/1[radioligand]/Kd where Kd is the equilibrium dissociation constant for the radioligand:receptor interaction and InPt is the inflection point of the dose-response curves.
EP4 receptor binding assays were performed at MSD Pharma Service in Taiwan under the following assay conditions: […]

T1 sequence (P35408 whole entry): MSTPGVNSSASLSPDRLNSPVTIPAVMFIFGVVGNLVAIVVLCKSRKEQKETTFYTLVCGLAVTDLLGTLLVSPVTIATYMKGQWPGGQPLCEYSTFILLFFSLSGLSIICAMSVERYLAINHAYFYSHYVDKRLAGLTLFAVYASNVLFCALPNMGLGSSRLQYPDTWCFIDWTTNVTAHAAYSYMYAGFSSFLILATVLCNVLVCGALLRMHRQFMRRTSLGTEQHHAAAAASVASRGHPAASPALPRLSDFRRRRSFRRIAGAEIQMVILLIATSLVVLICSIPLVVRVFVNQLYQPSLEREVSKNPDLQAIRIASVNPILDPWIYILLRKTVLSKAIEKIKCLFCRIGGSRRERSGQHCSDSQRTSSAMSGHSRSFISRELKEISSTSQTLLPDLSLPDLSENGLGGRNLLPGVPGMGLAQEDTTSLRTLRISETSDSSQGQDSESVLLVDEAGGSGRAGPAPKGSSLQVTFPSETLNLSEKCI

SMILES | inhibition at 0.01 µM | inhibition at 0.002 µM
CC(NC(=O)c1csc2ccn(Cc3ccc(C(F)(F)F)cc3)c12)c1ccc(C(=O)O)cc1 (centres unmarked) | 87% | –
O=C(O)c1ccc(C2(NC(=O)c3cccc4c3N(Cc3ccc(C(F)(F)F)cc3)C(=O)C4)CC2)cc1 | 83% | –
Cc1sc2ccn(Cc3ccc(C(F)(F)F)cc3)c2c1C(=O)NC1(c2ccc(C(=O)O)cc2)CC1 | – | 93%
O=C(O)c1ccc(C2(NC(=O)c3csc4ccn(Cc5ccc(C(F)(F)F)cc5)c34)CC2)cc1 | – | 88%
Cc1sc2ccn(Cc3ccc(C(F)(F)F)cc3)c2c1C(=O)NC(C)c1ccc(C(=O)O)cc1 (centres unmarked) | 85% | –
